Measured values published in PubChem BioAssay (NCI).
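Exposure lasted 48 hours, with cells grown in 96-well plates and compounds tested at five concentrations. At the GI50, growth is halved. The concentration for full growth arrest is given as TGI.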

Legend:
Assay in all cases: NCI tumour cell line growth inhibition, 48 h
786-0 renal = test system: 786-0 renal
A498 renal = test system: A498 renal
A549 NSCLC = test system: A549 NSCLC
BT-549 breast = test system: BT-549 breast
CAKI-1 renal = test system: CAKI-1 renal
CCRF-CEM leukemia = test system: CCRF-CEM leukemia
DU-145 prostate = test system: DU-145 prostate
EKVX NSCLC = test system: EKVX NSCLC
HCC-2998 colon = test system: HCC-2998 colon
HCT-15 colon = test system: HCT-15 colon
HL-60(TB) leukemia = test system: HL-60(TB) leukemia
HOP-92 NSCLC = test system: HOP-92 NSCLC
HS 578T breast = test system: HS 578T breast
IGROV1 ovarian = test system: IGROV1 ovarian
K-562 leukemia = test system: K-562 leukemia
KM12 colon = test system: KM12 colon
M14 melanoma = test system: M14 melanoma
MCF7 breast = test system: MCF7 breast
MDA-MB-231 breast = test system: MDA-MB-231 breast
MDA-MB-435 = test system: MDA-MB-435
MOLT-4 leukemia = test system: MOLT-4 leukemia
NCI-H226 lung = test system: NCI-H226 lung
NCI-H23 lung = test system: NCI-H23 lung
NCI-H460 lung = test system: NCI-H460 lung
NCI-H522 lung = test system: NCI-H522 lung
NCI/ADR-RES ovarian = test system: NCI/ADR-RES ovarian
OVCAR-3 ovarian = test system: OVCAR-3 ovarian
OVCAR-5 ovarian = test system: OVCAR-5 ovarian
OVCAR-8 ovarian = test system: OVCAR-8 ovarian
PC-3 prostate = test system: PC-3 prostate
RPMI-8226 leukemia = test system: RPMI-8226 leukemia
SF-268 CNS = test system: SF-268 CNS
SF-295 CNS = test system: SF-295 CNS
SF-539 CNS = test system: SF-539 CNS
SK-MEL-2 melanoma = test system: SK-MEL-2 melanoma
SK-MEL-5 melanoma = test system: SK-MEL-5 melanoma
SN12C renal = test system: SN12C renal
SR leukemia = test system: SR leukemia
SW-620 colon = test system: SW-620 colon
TK-10 renal = test system: TK-10 renal
UACC-257 melanoma = test system: UACC-257 melanoma
UACC-62 melanoma = test system: UACC-62 melanoma
UO-31 renal = test system: UO-31 renal

CC(=O)NS(=O)(=O)c1ccc(-n2nc(-c3ccc(Cl)cc3)cc2-c2cc(O)ccc2O)cc1
GI50 (786-0 renal): 16.1 µM
TGI (786-0 renal): 29.6 µM
GI50 (A498 renal): 24.8 µM
TGI (A498 renal): 93.4 µM
GI50 (A549 NSCLC): 34.9 µM
TGI (A549 NSCLC): > 100 µM
GI50 (BT-549 breast): > 100 µM
TGI (BT-549 breast): > 100 µM
GI50 (CAKI-1 renal): 28.1 µM
TGI (CAKI-1 renal): 56.9 µM
GI50 (CCRF-CEM leukemia): 5.55 µM
TGI (CCRF-CEM leukemia): > 100 µM
GI50 (DU-145 prostate): 21.5 µM
TGI (DU-145 prostate): 47.5 µM
GI50 (EKVX NSCLC): 46.1 µM
TGI (EKVX NSCLC): > 100 µM
GI50 (HCC-2998 colon): 20.7 µM
TGI (HCC-2998 colon): 39.7 µM
GI50 (HCT-15 colon): 13.6 µM
TGI (HCT-15 colon): 26.5 µM
GI50 (HL-60(TB) leukemia): 40.8 µM
TGI (HL-60(TB) leukemia): > 100 µM
GI50 (HOP-92 NSCLC): 17.1 µM
TGI (HOP-92 NSCLC): 48.4 µM
GI50 (HS 578T breast): 62.2 µM
TGI (HS 578T breast): > 100 µM
GI50 (IGROV1 ovarian): 92.8 µM
TGI (IGROV1 ovarian): > 100 µM
GI50 (K-562 leukemia): 29.9 µM
TGI (K-562 leukemia): 96 µM
GI50 (KM12 colon): 41.1 µM
TGI (KM12 colon): > 100 µM
GI50 (M14 melanoma): 14 µM
TGI (M14 melanoma): 27 µM
GI50 (MCF7 breast): > 100 µM
TGI (MCF7 breast): > 100 µM
GI50 (MDA-MB-231 breast): 10.9 µM
TGI (MDA-MB-231 breast): 22.8 µM
GI50 (MDA-MB-435): 31.6 µM
TGI (MDA-MB-435): > 100 µM
GI50 (MOLT-4 leukemia): 87.3 µM
TGI (MOLT-4 leukemia): > 100 µM
GI50 (NCI-H226 lung): 14.4 µM
TGI (NCI-H226 lung): 36.2 µM
GI50 (NCI-H23 lung): 18.6 µM
TGI (NCI-H23 lung): 32.6 µM
GI50 (NCI-H460 lung): > 100 µM
TGI (NCI-H460 lung): > 100 µM
GI50 (NCI-H522 lung): 37 µM
TGI (NCI-H522 lung): > 100 µM
GI50 (NCI/ADR-RES ovarian): 27.2 µM
TGI (NCI/ADR-RES ovarian): 70 µM
GI50 (OVCAR-3 ovarian): 32.6 µM
TGI (OVCAR-3 ovarian): 84.9 µM
GI50 (OVCAR-5 ovarian): 20.1 µM
TGI (OVCAR-5 ovarian): 40 µM
GI50 (OVCAR-8 ovarian): 33 µM
TGI (OVCAR-8 ovarian): > 100 µM
GI50 (PC-3 prostate): 13.8 µM
TGI (PC-3 prostate): 30 µM
GI50 (RPMI-8226 leukemia): 21.1 µM
TGI (RPMI-8226 leukemia): 59.8 µM
GI50 (SF-268 CNS): 52.1 µM
TGI (SF-268 CNS): > 100 µM
GI50 (SF-295 CNS): 30.9 µM
TGI (SF-295 CNS): > 100 µM
GI50 (SF-539 CNS): 32.4 µM
TGI (SF-539 CNS): 81.6 µM
GI50 (SK-MEL-2 melanoma): > 100 µM
TGI (SK-MEL-2 melanoma): > 100 µM
GI50 (SK-MEL-5 melanoma): 36.4 µM
TGI (SK-MEL-5 melanoma): > 100 µM
GI50 (SN12C renal): 19.6 µM
TGI (SN12C renal): 40.8 µM
GI50 (SR leukemia): 39.5 µM
TGI (SR leukemia): > 100 µM
GI50 (SW-620 colon): 75 µM
TGI (SW-620 colon): > 100 µM
GI50 (TK-10 renal): 31.7 µM
TGI (TK-10 renal): 92.6 µM
GI50 (UACC-257 melanoma): 15.9 µM
TGI (UACC-257 melanoma): 45.7 µM
GI50 (UACC-62 melanoma): 14.5 µM
TGI (UACC-62 melanoma): 27.6 µM
GI50 (UO-31 renal): 20.5 µM
TGI (UO-31 renal): 45.6 µM
